According to PubChem BioAssay (NCI):
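48-hour exposure; five concentrations; linearly interpolated endpoints. GI50 marks 50% less growth. Definition used: TGI = concentration required for complete inhibition of growth.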

Key:
Test in all cases: DTP human tumour cell line panel, 48 h
RXF 393 renal = test system: RXF 393 renal
MALME-3M melanoma = test system: MALME-3M melanoma
SK-MEL-28 melanoma = test system: SK-MEL-28 melanoma
NCI-H23 lung = test system: NCI-H23 lung
COLO 205 colon = test system: COLO 205 colon
SF-295 CNS = test system: SF-295 CNS
OVCAR-5 ovarian = test system: OVCAR-5 ovarian
HCT-15 colon = test system: HCT-15 colon
TK-10 renal = test system: TK-10 renal
ACHN renal = test system: ACHN renal

| SMILES | TGI (RXF 393 renal) [µM] | TGI (MALME-3M melanoma) [µM] | TGI (SK-MEL-28 melanoma) [µM] | TGI (NCI-H23 lung) [µM] | TGI (COLO 205 colon) [µM] | TGI (SF-295 CNS) [µM] | TGI (OVCAR-5 ovarian) [µM] | TGI (HCT-15 colon) [µM] | TGI (TK-10 renal) [µM] | TGI (ACHN renal) [µM] | GI50 (TK-10 renal) [µM] |
| --- | --- | --- | --- | --- | --- | --- | --- | --- | --- | --- | --- |
| COC(=O)NC(Cc1ccccc1)NC(=O)OC(C)(C)C (stereo unspecified) | > 100 | > 100 | > 100 | > 100 | > 100 | > 100 | > 100 | > 100 | > 100 | > 100 |  |
| Cc1ccc(C)n1-c1ccccc1C1C=Cn2c(=O)oc3c(OC(C)C)c(OC(C)C)c(O)c1c32 (stereo unspecified) | 32.7 | > 100 | > 100 | > 100 | 30.9 | > 100 | > 100 | > 100 | > 100 | > 100 |  |
| CCOP(=O)(OCC)/C(=C/n1c(=S)[nH]c2ccccc21)C(=O)OC | > 100 | > 100 | > 100 | > 100 | > 100 | > 100 | > 100 | > 52.2 | > 100 | > 100 | > 100 |
| CCOC(=O)c1sc2nc(SC)nc3c2c1NCN3C | 32.8 | 57.6 | > 100 | 59.1 | > 100 | > 100 | > 100 | > 100 | > 100 | 59.3 |  |
| O=C(CCCCCNC(=O)c1ccc(Cl)cc1)NO | 19.8 | > 100 | > 100 | 51.5 | 10.5 | 36.1 | 8.43 | > 100 | 16.4 | 41.6 |  |
| O=c1oc2ccccc2c(O)c1C(c1ccc(OCc2ccccc2)cc1)c1c(O)c2ccccc2oc1=O | > 100 | > 100 | > 100 | > 100 | > 100 | > 100 | > 100 | > 100 | > 100 | 47.9 |  |
| CCOc1ccc2c(c1)C(/C(C(Cl)=C(Cl)Cl)=[N+](/[O-])OC(=O)c1ccccc1)=N2 | > 100 | > 100 | > 100 | > 100 | > 100 | > 100 | > 100 | > 100 | > 100 | > 100 |  |
| Cc1ccc(/C=c2\c(=O)[nH]c3nc4ccccc4c(=O)n23)cc1 | 98.7 | > 100 | > 100 | > 100 | 42.2 | > 100 | > 100 | > 100 | > 100 | > 100 |  |
| CCN(CC)/N=C\c1c2ccccc2cc2ccccc12 | 57.3 | > 100 | > 100 | > 100 | 53.5 | > 100 | > 100 | > 100 | > 100 | > 100 |  |
| COCC(C#N)NC1CC(OC2CC(O)(C(=O)CO)Cc3c(O)c4c(c(O)c32)C(=O)c2c(OC)cccc2C4=O)OC(C)C1O (stereo unspecified) | 0.497 | 0.18 | 0.527 | 0.682 | 0.471 | 1.9 | 2.54 | 12.8 | 2.42 | 5.46 |  |
